Results: BindingDB's records for doi:10.1016/j.ejphar.2003.10.004 (Yamanouchi Pharmaceutical, 2004)

Legend:
[1] = target: 5-hydroxytryptamine receptor 2A (Homo sapiens, UniProt P28223)
[2] = target: T1, 5-hydroxytryptamine receptor 3A (Homo sapiens, UniProt P46098)
T1 sequence (P46098 whole entry): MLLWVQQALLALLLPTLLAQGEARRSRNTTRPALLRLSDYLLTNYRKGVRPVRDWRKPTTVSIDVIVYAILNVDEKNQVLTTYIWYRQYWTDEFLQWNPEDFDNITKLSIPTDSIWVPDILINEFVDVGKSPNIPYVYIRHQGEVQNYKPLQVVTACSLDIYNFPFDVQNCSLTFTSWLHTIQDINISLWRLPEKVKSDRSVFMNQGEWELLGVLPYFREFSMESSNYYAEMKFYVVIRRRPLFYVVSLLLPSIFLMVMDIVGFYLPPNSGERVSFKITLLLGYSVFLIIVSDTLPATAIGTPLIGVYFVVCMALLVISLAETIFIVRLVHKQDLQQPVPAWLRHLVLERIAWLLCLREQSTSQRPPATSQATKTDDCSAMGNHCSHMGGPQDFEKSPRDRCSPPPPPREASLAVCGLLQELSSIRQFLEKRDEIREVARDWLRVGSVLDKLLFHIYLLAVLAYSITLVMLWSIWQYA

[3] = target: 5-hydroxytryptamine receptor 1B (Canis lupus familiaris, UniProt P79250)
Sequence of 5-hydroxytryptamine receptor 1B (P79250 whole entry): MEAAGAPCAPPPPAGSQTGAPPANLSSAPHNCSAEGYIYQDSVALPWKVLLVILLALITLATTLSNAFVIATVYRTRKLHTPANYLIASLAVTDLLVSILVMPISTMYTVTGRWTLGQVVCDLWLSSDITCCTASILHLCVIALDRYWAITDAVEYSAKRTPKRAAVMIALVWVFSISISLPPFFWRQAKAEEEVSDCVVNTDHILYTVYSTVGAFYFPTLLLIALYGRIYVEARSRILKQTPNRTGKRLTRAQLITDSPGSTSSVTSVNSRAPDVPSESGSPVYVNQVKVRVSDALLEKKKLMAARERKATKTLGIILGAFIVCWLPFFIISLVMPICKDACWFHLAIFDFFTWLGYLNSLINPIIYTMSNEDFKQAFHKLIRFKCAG

[4] = target: 5-hydroxytryptamine receptor 5A (Homo sapiens, UniProt P47898)
Sequence of 5-hydroxytryptamine receptor 5A (P47898 whole entry): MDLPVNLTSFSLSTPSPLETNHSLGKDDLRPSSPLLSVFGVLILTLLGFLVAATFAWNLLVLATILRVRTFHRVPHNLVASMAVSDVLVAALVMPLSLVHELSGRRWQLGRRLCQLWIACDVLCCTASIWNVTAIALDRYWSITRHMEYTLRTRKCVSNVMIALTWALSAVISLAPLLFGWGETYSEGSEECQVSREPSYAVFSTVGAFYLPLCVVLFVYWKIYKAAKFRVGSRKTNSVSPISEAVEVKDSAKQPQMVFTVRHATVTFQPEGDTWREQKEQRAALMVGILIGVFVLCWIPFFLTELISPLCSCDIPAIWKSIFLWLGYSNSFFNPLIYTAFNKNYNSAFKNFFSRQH

[5] = target: T2, 5-hydroxytryptamine receptor 2C (Homo sapiens, UniProt P28335)
T2 sequence (P28335 whole entry): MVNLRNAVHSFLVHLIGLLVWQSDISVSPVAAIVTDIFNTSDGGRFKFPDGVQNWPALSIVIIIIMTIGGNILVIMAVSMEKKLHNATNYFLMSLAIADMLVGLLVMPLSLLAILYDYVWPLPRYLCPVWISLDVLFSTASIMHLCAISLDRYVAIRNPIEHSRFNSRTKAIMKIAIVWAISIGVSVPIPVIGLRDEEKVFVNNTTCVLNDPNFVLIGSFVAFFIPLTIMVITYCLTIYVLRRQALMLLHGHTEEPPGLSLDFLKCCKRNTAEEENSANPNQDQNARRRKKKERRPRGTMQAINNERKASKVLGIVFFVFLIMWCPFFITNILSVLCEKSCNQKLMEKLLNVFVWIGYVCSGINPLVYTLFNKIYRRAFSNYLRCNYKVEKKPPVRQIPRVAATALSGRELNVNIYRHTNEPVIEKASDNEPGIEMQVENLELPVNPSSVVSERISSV

[6] = target: 5-hydroxytryptamine 1D receptor (Bos taurus, UniProt Q8MI13)
Sequence of 5-hydroxytryptamine 1D receptor (Q8MI13 whole entry): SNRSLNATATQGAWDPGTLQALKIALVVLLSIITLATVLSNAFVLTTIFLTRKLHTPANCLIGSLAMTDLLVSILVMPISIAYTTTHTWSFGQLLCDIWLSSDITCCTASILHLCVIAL

[7] = target: 5-hydroxytryptamine receptor 2B (Homo sapiens, UniProt P41595)
Sequence of 5-hydroxytryptamine receptor 2B (P41595 whole entry): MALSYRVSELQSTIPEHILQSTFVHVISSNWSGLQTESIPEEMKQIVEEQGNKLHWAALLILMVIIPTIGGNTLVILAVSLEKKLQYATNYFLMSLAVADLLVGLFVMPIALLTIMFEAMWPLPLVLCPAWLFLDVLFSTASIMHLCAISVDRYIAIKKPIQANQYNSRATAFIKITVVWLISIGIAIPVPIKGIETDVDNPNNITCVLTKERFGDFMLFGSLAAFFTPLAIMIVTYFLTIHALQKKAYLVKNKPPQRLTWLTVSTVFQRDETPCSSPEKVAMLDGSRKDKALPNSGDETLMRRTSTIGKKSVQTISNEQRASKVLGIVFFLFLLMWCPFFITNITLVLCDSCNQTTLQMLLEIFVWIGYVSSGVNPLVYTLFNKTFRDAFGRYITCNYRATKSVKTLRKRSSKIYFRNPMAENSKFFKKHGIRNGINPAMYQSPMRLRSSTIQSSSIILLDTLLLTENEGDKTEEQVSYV

[8] = target: T3, Alpha-2A adrenergic receptor (Homo sapiens, UniProt P08913)
T3 sequence (P08913 whole entry): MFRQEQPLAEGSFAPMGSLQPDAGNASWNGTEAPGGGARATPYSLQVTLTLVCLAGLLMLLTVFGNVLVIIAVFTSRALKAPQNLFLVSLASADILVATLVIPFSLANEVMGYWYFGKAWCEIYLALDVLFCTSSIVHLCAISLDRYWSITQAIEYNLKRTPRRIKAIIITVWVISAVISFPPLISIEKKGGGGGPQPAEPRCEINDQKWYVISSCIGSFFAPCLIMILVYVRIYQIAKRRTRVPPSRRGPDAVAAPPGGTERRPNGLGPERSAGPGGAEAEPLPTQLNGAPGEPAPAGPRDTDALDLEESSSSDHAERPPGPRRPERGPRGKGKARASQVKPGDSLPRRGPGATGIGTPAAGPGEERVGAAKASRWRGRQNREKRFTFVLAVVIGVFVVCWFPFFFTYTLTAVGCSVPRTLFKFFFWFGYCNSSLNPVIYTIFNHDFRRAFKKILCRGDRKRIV

[9] = target: 5-hydroxytryptamine receptor 7 (Homo sapiens, UniProt P34969)
Sequence of 5-hydroxytryptamine receptor 7 (P34969 whole entry): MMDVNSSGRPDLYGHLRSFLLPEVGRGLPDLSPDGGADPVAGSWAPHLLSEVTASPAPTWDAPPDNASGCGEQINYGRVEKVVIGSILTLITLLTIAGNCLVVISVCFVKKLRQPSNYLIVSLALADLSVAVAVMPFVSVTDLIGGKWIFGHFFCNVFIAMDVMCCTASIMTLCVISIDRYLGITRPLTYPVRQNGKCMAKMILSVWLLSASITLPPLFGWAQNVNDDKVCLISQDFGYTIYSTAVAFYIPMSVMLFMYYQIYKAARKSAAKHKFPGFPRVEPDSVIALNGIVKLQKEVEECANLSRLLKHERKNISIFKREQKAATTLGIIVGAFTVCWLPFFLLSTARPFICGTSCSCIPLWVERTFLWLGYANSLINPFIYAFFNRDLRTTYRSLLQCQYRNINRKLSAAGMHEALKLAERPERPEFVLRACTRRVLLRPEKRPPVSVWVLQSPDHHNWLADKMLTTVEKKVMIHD

Sequence of 5-hydroxytryptamine receptor 2A (P28223 whole entry): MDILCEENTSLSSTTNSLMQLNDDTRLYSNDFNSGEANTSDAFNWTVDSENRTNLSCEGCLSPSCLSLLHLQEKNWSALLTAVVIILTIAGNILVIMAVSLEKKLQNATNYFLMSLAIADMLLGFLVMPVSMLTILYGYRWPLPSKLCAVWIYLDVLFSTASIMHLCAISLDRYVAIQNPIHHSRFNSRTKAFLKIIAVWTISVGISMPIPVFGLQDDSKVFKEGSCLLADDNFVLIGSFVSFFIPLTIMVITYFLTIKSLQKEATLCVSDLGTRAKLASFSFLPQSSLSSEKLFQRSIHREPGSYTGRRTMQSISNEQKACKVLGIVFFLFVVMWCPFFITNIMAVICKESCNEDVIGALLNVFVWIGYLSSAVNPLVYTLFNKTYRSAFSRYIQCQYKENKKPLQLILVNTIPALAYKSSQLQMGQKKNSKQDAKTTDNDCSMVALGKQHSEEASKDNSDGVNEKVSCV

| Compound | Ki [1] [nM] | Ki [2] [nM] | Ki [3] [nM] | Ki [4] [nM] | Ki [5] [nM] | Ki [6] [nM] | Ki [7] [nM] | Ki [8] [nM] | Ki [9] [nM] |
| --- | --- | --- | --- | --- | --- | --- | --- | --- | --- |
| CCc1cc2c(ccc3cnn(CC(C)N)c32)o1 (configuration not stated) [CAS_3045225] | 13 | 1000 | 1000 | 1000 | 0.89 | 481 | 2.5 | 126 | 177 |
| CC(N)Cn1ccc2cc(F)c(Cl)cc21 (configuration not stated) [NSC_3045226] | 24 | – | – | – | 19 | – | 2.4 | – | – |
